Test results as given in patent US7932213B2, “Small molecule printing” (President and Fellows of Harvard College, priority 1999, dated 2011).

Tests used:
calmodulin = calmodulin (Homo sapiens, UniProt P0DP23); assay: Surface plasmon resonance (BIAcore) binding to immobilized calmodulin; details: SPR, steady state affinity analysis; resynthesized, purified compound; PBST containing 4% DMF
Description: Cy5 detection was chosen to avoid conflict with compound autofluorescence in the Cy3 channel. Positive hits from the microarray were retested for their ability to bind to the immobilized protein using surface plasmon resonance (SPR) spectroscopy (BIAcore). This process enables a rapid initial prioritization of positives prior to resynthesis, The initial secondary SPR screening was performed using compound (2 μL of a 1 mM DMF stock) directly from the original stock solutions used for microarray production. […] For this set, compound 5, 6, and 7 were resynthesized, purified, and their KDs with calmodulin determined by SPR using steady state affinity analysis.
Tetracycle 7: ^1H NMR (500 MHz, CDCl3) δ 6.95 (d, J=8.5 Hz, 2H), 6.87 (m, 4H), 6.71 (d, J=8.0 Hz, 2H), 6.55 (q, J=1.5 Hz, 1H), 6.04 (m, 1H), 4.93 (s, 1H), 4.68 (s, 1H), 3.84 (t, J=5.0 Hz, 4H), 3.34 (dd, J=17.0, 2.5 Hz, 1H), 3.28 (m, 2H), 3.16 (t, J=5.0 Hz, 4H), 3.02 (m, 1H), 2.94 (dd, J=15.0, 7.0 Hz, 1H), 2.54 (dd, J=17.5, 8.5 Hz, 1H), 2.36 (ddd J=15.5, 6.5, 3.5 Hz, 1H), 2.05 (d, J=1.5 Hz, 3H); ^13C NMR (125 MHz, CDCl3) δ 186.4, 186.1, 178.8, 177.1, 154.4, 151.2, 146.0, 143.4, 140.8, 139.5, 132.6, 132.5, 128.2, 127.1, 123.1, 122.7, 115.6, 115.5, 66.7, 48.7, 43.9, 42.6, 39.1, 32.4, 24.5, 24.1, 16.1; FT-IR (thin film) 3411, 2961, 2907, 2852, 1699, 1690, 1649, 1611, 1513, 1441, 1381, 1261, 1234, 1173, 1113, 922, 818, 730 cm^−1; HRMS (TOF ES) calcd for C33H31N2O6, 551.2182 m/z (M+H)^+; observed 551.2186 (0.8 ppm error). BIAcore Experiments Immobilization. In all experiments, calmodulin (CaM) was immobilized on a carboxymethylated dextran-coated sensor chip (CM5, Biacore AB, Uppsala, Sweden) at 25° C. For protein immobilization, ‘specific flow rate’ was selected and the protein of interest was immobilized in flow cells 2 and 4. On Biacore 3000, the sensor chip was activated (7 min in flow cells 2 and 4) by addition of 0.2 M N-ethyl-N'-(3-dimethylaminopropyl) carbodiimide hydrochloride (EDC) and 0.05 M N-hydroxysuccinimide (NHS) at 20 μL/min. […]

[1] = Precipitation of sample in SPR binding buffer (4% DMF/PBST); type: physicochemical; details: at 125 μM
Description: After the prioritization step, compounds 5, 6 and 7 were resynthesized, purified and subjected to KD determination. Samples were injected over a range of concentrations (e.g. 0.1-125 μM). The compound was prepared as a 10 mM stock solution in DMF. Serial dilutions of this stock were made and then added to the heated PBST (˜70° C., 1 min). In this analysis, a 200 μL final volume was prepared by addition of 8 μL of small molecule DMF solution into 192 μL of a heated PBST. The final concentration ranged between 0.015 μM and 125 μM. 5 and 6 precipitated at 125 μM in 4% DMF/PBST. Samples were injected in the alternation with blanks. “Flow cell 2 with 1 as a reference” was selected and each sample was analyzed in triplicate. For each experiment, a calibration for bulk differences between flow cells due to the high refractive index of DMF was performed by injecting blank samples containing a range of DMF concentrations (1, 2, 3, 3.5, 4, 4.5, 5%) in PBST under conditions otherwise identical to those used for samples of compounds 5, 6 and 7.

Kd (calmodulin) [nM] | precipitation in 4% DMF/PBST [1] | Compound
121 ± 30 | precipitated | CN(C)c1ccc(/N=N/c2ccc(N3C(=O)[C@H]4[C@H](CC=C5[C@H]4C[C@H]4C(=O)N(c6ccc(F)c(Cl)c6)C(=O)[C@@]4(C)[C@H]5c4cc(Cl)ccc4O)C3=O)cc2)cc1 [Compound 5]
1060 ± 90 | precipitated | Cc1c(-c2cc(N3C(=O)[C@@H]4C[C@@H]5C(=CC[C@@H]6C(=O)N(c7ccc(/N=N/c8ccc(N(C)C)cc8)cc7)C(=O)[C@@H]65)[C@H](c5cc(Cl)ccc5O)[C@]4(C)C3=O)n(C)n2)sc2ccc(Cl)cc12 [Compound 6]
20700 ± 1000 |  | CC1=CC(=O)C2=C(C[C@@H]3C(=CC[C@@H]4C(=O)N(c5ccc(N6CCOCC6)cc5)C(=O)[C@@H]43)[C@@H]2c2ccc(O)cc2)C1=O [Compound 7]
